Legend:
CYP3A4 [1] = target: T1, CYP3A4 (Homo sapiens, UniProt P08684); test: Contribution of CYP3A4 in the metabolism of apalutamide; parameters: endogenous in cells; host or cells: human subjects, in vivo; conditions: estimated
Text: Metabolism is the main route of elimination of apalutamide.

male rats = test: Repeat-dose toxicity study in male rats (up to 26 weeks); assay type: in vivo, rat
[2] = test system: multidrug and toxin extrusions (MATEs); test: In vitro transporter inhibition; assay type: in vitro ADME
CYP2C9 = CYP2C9 (Homo sapiens, UniProt P11712); test: In vitro CYP inhibition
Chain of CYP2C9 (P11712 whole entry): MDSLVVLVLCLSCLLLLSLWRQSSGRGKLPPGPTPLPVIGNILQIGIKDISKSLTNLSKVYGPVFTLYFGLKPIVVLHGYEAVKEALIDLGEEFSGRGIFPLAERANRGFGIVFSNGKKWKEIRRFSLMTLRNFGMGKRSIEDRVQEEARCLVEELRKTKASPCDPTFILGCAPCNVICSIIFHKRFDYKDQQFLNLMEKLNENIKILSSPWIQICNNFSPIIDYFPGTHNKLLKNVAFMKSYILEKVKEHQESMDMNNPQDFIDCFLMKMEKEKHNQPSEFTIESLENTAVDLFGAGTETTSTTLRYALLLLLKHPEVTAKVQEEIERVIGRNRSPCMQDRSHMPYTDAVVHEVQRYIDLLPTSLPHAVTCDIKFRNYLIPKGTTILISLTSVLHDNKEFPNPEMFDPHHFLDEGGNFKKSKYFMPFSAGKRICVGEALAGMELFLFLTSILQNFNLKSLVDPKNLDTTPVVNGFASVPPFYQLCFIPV

[3] = Ionization under physiological pH; assay type: physicochemical; conditions: relevant physiological pH condition
CYP1A2 = CYP1A2 (Homo sapiens, UniProt P05177); test: In vitro effect on CYP; conditions: therapeutically relevant concentrations
Chain of CYP1A2 (P05177 whole entry): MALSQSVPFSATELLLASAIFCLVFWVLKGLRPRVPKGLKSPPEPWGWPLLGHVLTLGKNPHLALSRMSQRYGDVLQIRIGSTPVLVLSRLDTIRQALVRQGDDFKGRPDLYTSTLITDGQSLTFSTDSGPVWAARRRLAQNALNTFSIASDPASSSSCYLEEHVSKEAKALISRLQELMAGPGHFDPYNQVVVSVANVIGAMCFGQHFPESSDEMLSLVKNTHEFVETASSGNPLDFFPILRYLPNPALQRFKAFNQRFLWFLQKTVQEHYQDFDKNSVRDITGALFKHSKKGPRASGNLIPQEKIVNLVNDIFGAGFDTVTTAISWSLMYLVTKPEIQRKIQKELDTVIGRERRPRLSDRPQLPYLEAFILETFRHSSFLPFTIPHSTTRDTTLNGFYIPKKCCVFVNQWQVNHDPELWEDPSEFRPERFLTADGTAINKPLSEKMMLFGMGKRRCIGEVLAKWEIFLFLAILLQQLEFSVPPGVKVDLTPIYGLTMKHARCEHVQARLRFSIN

rat bone marrow = test: In vivo rat bone marrow micronucleus assay
[4] = test system: patients with metastatic castration-sensitive prostate cancer (mCSPC); test: Phase 3 study (TITAN) of apalutamide plus ADT versus placebo plus ADT: efficacy; assay type: in vivo, human
Experimental: The data presented herein as associated with this study reflects the state of this study at the time of this filing. The study was conducted at 260 sites in 23 countries. Review boards at all participating institutions approved the study, which was conducted in accordance with current International Conference on Harmonization guidelines for Good Clinical Practice and according to Declaration of Helsinki principles. All patients provided written informed consent. An independent data-monitoring committee was commissioned by the sponsor to monitor safety and efficacy before unblinding and make study conduct recommendations. Data were transcribed by personnel at each site from source documents into sponsor-prepared electronic case report forms. Blinding of investigators, patients, study site personnel, and sponsor study team to randomization codes was maintained until study completion, independent data-monitoring committee recommendation, or individual patient medical need.
Patients were stratified by Gleason score at diagnosis (≤7 vs. >7), region (North America and European Union vs. all other countries), and prior treatment with docetaxel (yes vs. no). A Screening Phase of up to 28 days before randomization established study eligibility. Subjects will receive/received treatment in 28-day cycles during the Treatment Phase until disease progression or the occurrence of unacceptable treatment-related toxicity or the sponsor terminates the study. […] During the Follow-up Phase, data collection (every 4 months) will include survival, additional data on secondary endpoints, date and type of disease progression (radiographic, PSA, clinical or a combination) on the first subsequent therapy for prostate cancer, and subsequent therapy for prostate cancer. Data collection in follow-up will continue until the subject dies, withdraws consent, is lost to follow-up or the study is terminated by the sponsor. The Brief Pain Inventory Short Form (BPI SF), Brief Fatigue Inventory (BFI), and EQ-5D-5L patient-report outcome (PRO) measures will also continue in the Follow-up Phase up to 12 months after treatment discontinuation.
Eligible patients were required to have documented adenocarcinoma of the prostate and distant metastatic disease documented by ≥1 lesion on bone scan, with or without visceral or lymph node involvement. […] Patients were castration sensitive (i.e., patients who are not receiving ADT at the time of progression). Previous treatment for prostate cancer was limited to prior docetaxel (maximum six cycles, no evidence of progression during treatment or before randomization), ADT for ≤6 months for metastatic castration-sensitive prostate cancer or ≤3 years total duration for localized prostate cancer, one course of radiation or surgical therapy for symptoms associated with metastatic disease, and other localized treatments (e.g., radiation therapy, prostatectomy) completed ≥1 year before randomization. Patients who had received a gonadotropin-releasing hormone agonist ≤28 days before randomization were required to take a first-generation antiandrogen (i.e., biclutamide, flutamide, or nilutamide) for ≥14 days before randomization. Antiandrogen must have been discontinued before randomization. Patients with severe angina, myocardial infarction, congestive heart failure, arterial/venous thromboembolic events, history of or predisposition for seizure, or recent ventricular arrhythmias were excluded.

CYP2C19 = CYP2C19 (Homo sapiens, UniProt P33261); test: In vitro CYP inhibition
Chain of CYP2C19 (P33261 whole entry): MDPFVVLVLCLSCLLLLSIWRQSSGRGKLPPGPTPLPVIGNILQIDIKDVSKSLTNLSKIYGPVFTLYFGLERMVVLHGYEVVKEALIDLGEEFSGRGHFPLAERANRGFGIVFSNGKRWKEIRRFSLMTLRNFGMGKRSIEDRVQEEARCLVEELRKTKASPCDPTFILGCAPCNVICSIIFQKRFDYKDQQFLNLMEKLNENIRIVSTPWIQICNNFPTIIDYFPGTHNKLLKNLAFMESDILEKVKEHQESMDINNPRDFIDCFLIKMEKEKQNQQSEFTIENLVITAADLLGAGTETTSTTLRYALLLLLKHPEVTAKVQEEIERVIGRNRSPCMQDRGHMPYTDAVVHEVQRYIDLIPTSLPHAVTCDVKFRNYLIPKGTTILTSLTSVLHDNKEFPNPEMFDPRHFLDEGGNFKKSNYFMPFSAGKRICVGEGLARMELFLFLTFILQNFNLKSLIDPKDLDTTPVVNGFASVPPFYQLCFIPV

dogs = test: Repeat-dose toxicity study in dogs (up to 39 weeks); assay type: in vivo, dog
CYP3A4 [5] = target: T1, CYP3A4; test: Co-administration with itraconazole (strong CYP3A4 inhibitor); assay type: in vivo; parameters: endogenous in cells; host or cells: human subjects, in vivo; conditions: ERLEADA 240 mg single dose with itraconazole
[6] = test system: non-castrate hormone-sensitive and bicalutamide-resistant human prostate cancer xenograft models; conditions: Clegg et al. Cancer Res. 2012; cited from earlier work
CYP2D6 = CYP2D6 (Homo sapiens, UniProt P10635); test: In vitro effect on CYP; conditions: therapeutically relevant concentrations
Chain of CYP2D6 (P10635 whole entry): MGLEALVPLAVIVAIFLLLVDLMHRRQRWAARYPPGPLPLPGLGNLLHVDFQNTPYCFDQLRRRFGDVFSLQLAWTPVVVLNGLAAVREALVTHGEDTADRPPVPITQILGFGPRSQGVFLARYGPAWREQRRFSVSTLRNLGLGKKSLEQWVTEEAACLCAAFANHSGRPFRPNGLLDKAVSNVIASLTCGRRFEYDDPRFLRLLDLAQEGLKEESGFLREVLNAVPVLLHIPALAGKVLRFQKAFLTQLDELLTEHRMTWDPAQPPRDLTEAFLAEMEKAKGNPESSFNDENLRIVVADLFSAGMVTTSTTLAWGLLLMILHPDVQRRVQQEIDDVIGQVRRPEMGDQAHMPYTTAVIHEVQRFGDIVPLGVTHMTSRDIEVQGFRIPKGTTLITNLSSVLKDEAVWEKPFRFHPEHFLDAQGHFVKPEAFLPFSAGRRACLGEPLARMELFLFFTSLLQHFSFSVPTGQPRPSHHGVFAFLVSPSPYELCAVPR

BCRP/OATP1B1 = test: Co-administration of ERLEADA with rosuvastatin (BCRP/OATP1B1 substrate); conditions: in vivo
[7] = target: organic cation transporter 2 (OCT2) (Homo sapiens, UniProt O15244); test: In vitro transporter inhibition
Chain of organic cation transporter 2 (OCT2) (O15244 whole entry): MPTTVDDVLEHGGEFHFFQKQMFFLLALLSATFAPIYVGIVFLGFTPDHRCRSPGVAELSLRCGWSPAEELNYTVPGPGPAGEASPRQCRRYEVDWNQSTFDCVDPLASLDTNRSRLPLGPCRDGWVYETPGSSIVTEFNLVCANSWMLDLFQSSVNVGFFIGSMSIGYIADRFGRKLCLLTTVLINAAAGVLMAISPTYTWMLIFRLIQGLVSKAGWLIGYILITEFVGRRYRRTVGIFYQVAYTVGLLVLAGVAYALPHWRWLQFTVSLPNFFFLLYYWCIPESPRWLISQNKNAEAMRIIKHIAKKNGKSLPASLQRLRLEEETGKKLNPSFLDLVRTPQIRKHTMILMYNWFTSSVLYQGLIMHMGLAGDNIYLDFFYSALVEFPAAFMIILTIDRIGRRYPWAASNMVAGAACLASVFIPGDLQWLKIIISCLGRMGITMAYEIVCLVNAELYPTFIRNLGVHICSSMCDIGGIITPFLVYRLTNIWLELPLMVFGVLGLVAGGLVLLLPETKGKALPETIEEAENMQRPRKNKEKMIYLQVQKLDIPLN

[8] = Solubility in aqueous media; assay type: physicochemical; conditions: aqueous media over a wide range of pH values
Text: The chemical name is (4-[7-(6-Cyano-5-trifluoromethylpyridin-3-yl)-8-oxo-6-thioxo-5,7-diazaspiro[3.4]oct-5-yl]-2-fluoro-N-methylbenzamide). Apalutamide is a white to slightly yellow powder.

rat = test: In vivo rat Comet assay
[9] = target: organic anion transporter 3 (OAT3) (Homo sapiens, UniProt Q8TCC7); test: In vitro transporter inhibition
Chain of organic anion transporter 3 (OAT3) (Q8TCC7 whole entry): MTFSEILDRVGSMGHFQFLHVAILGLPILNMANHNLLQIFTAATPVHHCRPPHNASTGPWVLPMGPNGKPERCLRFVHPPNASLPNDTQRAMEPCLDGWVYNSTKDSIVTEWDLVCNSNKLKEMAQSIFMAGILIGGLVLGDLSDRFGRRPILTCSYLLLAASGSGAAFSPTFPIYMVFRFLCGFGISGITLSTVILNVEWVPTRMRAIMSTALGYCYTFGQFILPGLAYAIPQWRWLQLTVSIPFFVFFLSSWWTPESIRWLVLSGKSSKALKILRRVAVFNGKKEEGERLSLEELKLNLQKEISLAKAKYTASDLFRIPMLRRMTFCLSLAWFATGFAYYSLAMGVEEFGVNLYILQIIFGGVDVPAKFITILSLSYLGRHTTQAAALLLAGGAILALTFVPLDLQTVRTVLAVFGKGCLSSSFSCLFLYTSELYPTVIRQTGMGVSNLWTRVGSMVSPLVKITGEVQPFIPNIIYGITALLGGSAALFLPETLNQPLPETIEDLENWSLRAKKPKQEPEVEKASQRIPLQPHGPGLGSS

T1 sequence (P08684 whole entry): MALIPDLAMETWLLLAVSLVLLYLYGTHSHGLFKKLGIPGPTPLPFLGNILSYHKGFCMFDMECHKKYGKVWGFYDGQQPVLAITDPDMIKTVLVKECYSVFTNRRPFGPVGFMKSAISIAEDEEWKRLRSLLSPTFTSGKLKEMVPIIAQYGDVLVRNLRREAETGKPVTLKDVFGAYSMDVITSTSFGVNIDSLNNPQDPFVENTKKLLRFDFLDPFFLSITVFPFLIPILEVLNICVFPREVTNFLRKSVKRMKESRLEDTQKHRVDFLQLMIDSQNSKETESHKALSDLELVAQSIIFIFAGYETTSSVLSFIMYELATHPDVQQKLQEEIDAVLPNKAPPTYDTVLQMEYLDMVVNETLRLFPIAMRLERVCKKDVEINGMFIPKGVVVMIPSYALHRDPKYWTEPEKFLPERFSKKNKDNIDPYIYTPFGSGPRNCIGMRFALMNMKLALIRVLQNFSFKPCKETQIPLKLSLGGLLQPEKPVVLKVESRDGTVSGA

SMILES: CNC(=O)c1ccc(N2C(=S)N(c3cnc(C#N)c(C(F)(F)F)c3)C(=O)C23CCC3)cc1F [Apalutamide, 4-[7-(6-cyano-5-trifluoromethylpyridin-3-yl)-8-oxo-6-thioxo-5,7-diazaspiro[3.4]oct-5-yl]-2-fluoro-N-methylbenzamide]
- Contribution of CYP3A4 in the metabolism of apalutamide (CYP3A4 [1]; at steady-state): 37%
- Contribution of CYP3A4 in the metabolism of apalutamide (CYP3A4 [1]; following single dose): 13%
- Dose at which atrophy of prostate gland and seminal vesicles, aspermia/hypospermia, tubular degeneration and/or interstitial cell hyperplasia or hypertrophy were observed (male rats): ≥ 25 mg/kg/day
- Inhibition of MATEs [2]: inhibit
- CYP2C9 inhibition (CYP2C9): weak inhibitors
- Ionization [3]: not ionizable
- Effect on CYP1A2 (CYP1A2): do not affect
- Genotoxicity (rat bone marrow): not genotoxic
- Treatment discontinuations as the result of progressive disease ([4]; 99 patients): 19%
- Deaths at cutoff for the first interim analysis ([4]; 525 patients randomized): 83
- Radiographic progression events ([4]; 525 patients randomized): 134
- Median radiographic progression-free survival ([4]; final analysis for rPFS): not reached
- Overall survival, 24-month event-free rate ([4]; in vivo): 82%
- Patients in whom PSA reached undetectable levels (PSA<0.2 ng per ml) ([4]; in vivo): 68%
- Radiographic progression-free survival, 24-month event-free rate ([4]; in vivo): 68%
- Change in FACT-P from baseline (health-related quality of life) ([4]; mixed-effect repeated measures model): maintained health-related quality of life and no between-group difference
- Patients who discontinued because of disease progression ([4]; n = 525): 99 (18.9) no. (%)
- Reduction in risk of death ([4]; vs placebo + ADT): 33%
- Reduction in risk of radiographic progression or death ([4]; vs placebo + ADT): 52%
- CYP2C19 inhibition (CYP2C19): weak inhibitors
- Dose at which atrophy of prostate gland and seminal vesicles, aspermia/hypospermia, tubular degeneration and/or interstitial cell hyperplasia or hypertrophy were observed (dogs): ≥ 2.5 mg/kg/day
- Apalutamide AUC change (CYP3A4 [5]): similar
- Apalutamide Cmax decrease (CYP3A4 [5]): 22%
- Tumor response [6]: partial or complete tumor regression
- Effect on CYP2D6 (CYP2D6): do not affect
- Induction of BCRP and OATP1B1, clinically (BCRP/OATP1B1): weak inducer
- Inhibition of OCT2 [7]: inhibit
- Solubility [8]: practically insoluble
- Genotoxicity (rat): not genotoxic
- Inhibition of OAT3 [9]: inhibit
